Experimental data taken from ChEMBL document CHEMBL1157763, “Structure-activity relationships of fluorinated (E)-3-((6-methylpyridin-2-yl)ethynyl)cyclohex-2-enone-O-methyloxime (ABP688) derivatives and the discovery of a high affinity analogue as a potential candidate for imaging metabotropic glutamate recepors subtype 5 (mGluR5) with positron emission …” (J Med Chem, 2010).

Tests used:
[1] = target: T1, Metabotropic glutamate receptor 5 (Rattus norvegicus, UniProt P31424); assay: Displacement of [3H]M-MPEP from mGluR5 in Sprague-Dawley rat brain P2 membrane after 45 mins by beta counting; assay type: tissue-based
T1 sequence (P31424 whole entry): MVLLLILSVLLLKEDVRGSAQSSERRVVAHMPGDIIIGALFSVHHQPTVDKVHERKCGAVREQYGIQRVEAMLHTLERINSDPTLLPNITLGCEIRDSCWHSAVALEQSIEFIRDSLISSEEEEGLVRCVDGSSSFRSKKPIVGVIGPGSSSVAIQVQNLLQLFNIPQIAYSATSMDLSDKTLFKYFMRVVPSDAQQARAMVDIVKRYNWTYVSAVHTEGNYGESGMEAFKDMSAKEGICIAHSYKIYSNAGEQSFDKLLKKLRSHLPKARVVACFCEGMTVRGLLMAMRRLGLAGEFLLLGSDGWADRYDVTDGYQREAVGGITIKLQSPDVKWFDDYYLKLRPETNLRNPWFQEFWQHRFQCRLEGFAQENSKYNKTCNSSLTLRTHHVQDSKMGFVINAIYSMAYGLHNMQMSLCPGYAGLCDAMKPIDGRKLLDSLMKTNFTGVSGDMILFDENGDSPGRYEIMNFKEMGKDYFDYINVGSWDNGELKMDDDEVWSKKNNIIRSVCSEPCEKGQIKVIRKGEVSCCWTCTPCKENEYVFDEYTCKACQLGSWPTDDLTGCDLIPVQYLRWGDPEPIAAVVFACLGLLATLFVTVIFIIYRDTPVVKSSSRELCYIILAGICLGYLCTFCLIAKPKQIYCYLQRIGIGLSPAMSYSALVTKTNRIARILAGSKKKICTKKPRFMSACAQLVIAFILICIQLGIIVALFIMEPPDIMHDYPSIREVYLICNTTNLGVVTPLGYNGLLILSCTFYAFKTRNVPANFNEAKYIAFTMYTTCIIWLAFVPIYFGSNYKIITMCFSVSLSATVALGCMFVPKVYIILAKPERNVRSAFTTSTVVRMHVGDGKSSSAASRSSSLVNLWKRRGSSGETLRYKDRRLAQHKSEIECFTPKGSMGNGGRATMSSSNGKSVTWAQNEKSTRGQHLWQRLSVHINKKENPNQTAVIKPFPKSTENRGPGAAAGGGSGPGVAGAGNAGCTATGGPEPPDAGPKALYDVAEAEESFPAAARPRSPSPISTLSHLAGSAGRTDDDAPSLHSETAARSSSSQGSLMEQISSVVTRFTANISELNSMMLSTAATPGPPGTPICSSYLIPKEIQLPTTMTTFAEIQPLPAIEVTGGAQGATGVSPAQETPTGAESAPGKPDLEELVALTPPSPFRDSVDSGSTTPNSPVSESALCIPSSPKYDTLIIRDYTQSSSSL

[2] = target: T1, Metabotropic glutamate receptor 5; assay: Binding affinity to mGluR5 ligand binding site 1 in Sprague-Dawley rat brain P2 membrane after 45 mins by gamma counting; assay type: tissue-based
[3] = target: T1, Metabotropic glutamate receptor 5; assay: Binding affinity to mGluR5 ligand binding site 2 in Sprague-Dawley rat brain P2 membrane after 45 mins by gamma counting; assay type: tissue-based
[4] = Lipophilicity, log P after 15 mins by shake-flask method; assay type: physicochemical; conditions: octanol/water
[5] = target: Metabotropic glutamate receptor 5 (Rattus norvegicus) (UniProt P31424); assay: Binding affinity to mGluR5 ligand binding site 1 in Sprague-Dawley rat brain P2 membrane assessed per mg of protein after 45 mins by gamma counting; assay type: tissue-based; conditions: tested as the 18F-labelled form
Chain of Metabotropic glutamate receptor 5 (Rattus norvegicus) (P31424 21-1203 limits assumed): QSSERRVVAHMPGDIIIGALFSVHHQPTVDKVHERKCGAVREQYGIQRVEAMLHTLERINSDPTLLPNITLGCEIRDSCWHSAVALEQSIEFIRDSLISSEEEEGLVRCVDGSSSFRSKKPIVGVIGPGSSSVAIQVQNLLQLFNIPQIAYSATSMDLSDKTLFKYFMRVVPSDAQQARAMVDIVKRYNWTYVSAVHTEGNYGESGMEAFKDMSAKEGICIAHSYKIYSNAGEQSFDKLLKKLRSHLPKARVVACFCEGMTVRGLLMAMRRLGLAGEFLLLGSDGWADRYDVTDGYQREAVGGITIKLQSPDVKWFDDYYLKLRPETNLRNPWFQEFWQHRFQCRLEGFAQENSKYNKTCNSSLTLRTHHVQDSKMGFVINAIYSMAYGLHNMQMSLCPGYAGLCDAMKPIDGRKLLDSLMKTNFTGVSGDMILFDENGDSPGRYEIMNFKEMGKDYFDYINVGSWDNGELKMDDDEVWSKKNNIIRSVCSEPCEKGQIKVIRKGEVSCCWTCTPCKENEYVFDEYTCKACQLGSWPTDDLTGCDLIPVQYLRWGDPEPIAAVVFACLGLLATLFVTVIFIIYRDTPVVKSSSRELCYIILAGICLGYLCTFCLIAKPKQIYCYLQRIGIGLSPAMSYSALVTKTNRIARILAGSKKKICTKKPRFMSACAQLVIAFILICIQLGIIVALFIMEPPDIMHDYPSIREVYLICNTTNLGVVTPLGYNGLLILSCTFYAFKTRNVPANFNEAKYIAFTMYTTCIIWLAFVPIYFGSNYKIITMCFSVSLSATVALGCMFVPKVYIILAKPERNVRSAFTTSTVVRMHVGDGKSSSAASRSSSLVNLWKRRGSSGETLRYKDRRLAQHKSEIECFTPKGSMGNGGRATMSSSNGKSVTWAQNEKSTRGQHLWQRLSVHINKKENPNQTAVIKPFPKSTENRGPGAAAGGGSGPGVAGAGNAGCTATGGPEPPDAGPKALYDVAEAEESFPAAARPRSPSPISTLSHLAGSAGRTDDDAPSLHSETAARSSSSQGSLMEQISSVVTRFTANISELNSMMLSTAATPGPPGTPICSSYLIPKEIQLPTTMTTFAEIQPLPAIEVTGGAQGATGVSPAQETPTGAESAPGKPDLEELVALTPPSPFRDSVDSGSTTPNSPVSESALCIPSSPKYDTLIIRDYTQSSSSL

[6] = target: Metabotropic glutamate receptor 5 (Rattus norvegicus) (UniProt P31424); assay: Binding affinity to mGluR5 ligand binding site 2 in Sprague-Dawley rat brain P2 membrane assessed per mg of protein after 45 mins by gamma counting; assay type: tissue-based; conditions: tested as the 18F-labelled form

SMILES | Ki [1] [nM] | other results
Fc1cccc(O/N=C2\C=C(C#Cc3ccccn3)CCC2)n1 | 44 | –
N#Cc1ccc(F)cc1O/N=C1/C=C(C#Cc2ccccn2)CCC1 | 73.4 | –
Fc1cccnc1O/N=C1/C=C(C#Cc2ccccn2)CCC1 | 4.01 | –
FCCCOCO/N=C1/C=C(C#Cc2ccccn2)CCC1 | 5.42 | –
N#Cc1ccc(O/N=C2\C=C(C#Cc3ccccn3)CCC2)cc1F | 49.8 | –
[18F]CCOCCO/N=C1/C=C(C#Cc2ccccn2)CCC1 | – | Kd [2]: 0.6 nM; Kd [3]: 13.7 nM
N#Cc1ccc(O/N=C2/C=C(C#Cc3ccccn3)CCC2)cc1F | 56.1 | –
FCCOCO/N=C1/C=C(C#Cc2ccccn2)CCC1 | 8.41 | –
FCCOCCO/N=C1/C=C(C#Cc2ccccn2)CCC1 | 3.8 | logP at 0.25 h [4]: 1.7; Bmax [5]: 470 fmol; Bmax [6]: 4 pmol

Continued, in another order:

Ki [1] [nM] | SMILES | other results
54.8 | CO/N=C1/C=C(C#Cc2ccncc2)CCC1 | –
46.8 | Cc1cccc(C#CC2=C/C(=N/Oc3cccc(F)n3)CCC2)n1 | –
252 | CO/N=C1/C=C(C#Cc2cccnc2)CCC1 | –
2.2 | CO/N=C1/C=C(C#Cc2ccccn2)CCC1 | –
9.15 | Fc1cccc(O/N=C2/C=C(C#Cc3ccccn3)CCC2)n1 | –
26.8 | Cc1cccc(C#CC2=C/C(=N/OCCOCCF)CCC2)n1 | logP at 0.25 h [4]: 2.1
4.4 | CO/N=C1/C=C(C#Cc2cccc(C)n2)CCC1 | logP at 0.25 h [4]: 2.4
